Assays:
[1] = test system: unilaterally nephrectomized SHR; experiment: Functional and structural renal dysfunction in unilaterally nephrectomized spontaneously hypertensive rats; format: in vivo, rat; conditions: Group 3: UNX + 10 mg/kg body weight/day in drinking water, 4 weeks
Source text: (§1) B-4. Effects of Partial A1 Agonists on Renal and Cardiac Function in Unilaterally Nephrectomized and Spontaneously Hypertensive Rats (Example 2 for Chronic Kidney Disorders)
(§2) Unilaterally nephrectomized, spontaneously hypertensive rats (SHR) are an established animal model for investigating the development and progression of hypertensive damage of the glomeruli in the remaining kidney [H. Kinuno et al., “Effects of uninephrectomy on renal structural properties in spontaneously hypertensive rats”, Clin and Exp Pharmacol and Physiol 2005, 32, 173-178]. […] Furthermore, renal excretion of substances usually eliminated in the urine, such as creatinine and urea, is reduced and the electrolyte metabolism is disturbed, the latter being associated with volume retention.
(§3) Procedure: male SHR rats (180-220 g) from Taconic had the left kidney removed in one session (=UNX). Normotensive Wistar Kyoto rats (WKY) from Taconic served as control. The following groups, each with 12 rats per group, were investigated:
(§4) Group 2 UNX+placebo (60 g glycerol+100 g water+969 g PEG-400)
(§5) Group 3 UNX+10 mg/kg body weight/day enalapril (reference therapy, in the drinking water)
(§6) Group 4 SNX+1.0 mg/kg body weight/day partial A1 EXAMPLE 1, p.o. in placebo
(§7) Group 5 SNX+3.0 mg/kg body weight/day partial A1 EXAMPLE 4, p.o. in placebo
(§8) Three weeks after unilateral nephrectomy, the SHRs developed manifest hypertensive damage of the glomeruli in the remaining kidney, from this time point on the rats were treated for a further four weeks corresponding to the groups given above. At the end of the protocol, the following samples were obtained/measurements were carried out: eight-hour urine collection, invasive measurement of systolic and diastolic left ventricular function, and TaqMan analyses of renal injury markers in the renal cortex.

[2] = test system: unilaterally nephrectomized SHR; experiment: Functional and structural myocardial dysfunction in unilaterally nephrectomized spontaneously hypertensive rats; format: in vivo, rat; conditions: Group 3: UNX + 10 mg/kg body weight/day in drinking water, 4 weeks
Source text: as §1, §2, §3, §4, §5, §6, §7, §8

[3] = test system: 5/6 nephrectomy rat model; experiment: Functional and structural renal dysfunction in 5/6 nephrectomized rats; format: in vivo; conditions: Group 3: SNX + 10 mg/kg body weight/day in drinking water, 4 weeks
Source text: (§9) B-3. Effects of Partial A1 Agonists on Renal and Cardiac Function in 5/6 Nephrectomized Rats (Example 1 for Chronic Kidney Disorder)
(§10) 5/6 nephrectomy in the rat, in which one kidney and the renal cortex of the second kidney are surgically removed (=5/6 of functional kidney tissue) is an established animal model for interstitial renal fibrosis and chronic renal insufficiency [C. Fleck et al., “Suitability of 5/6 nephrectomy (5/6NX) for the induction of interstitial renal fibrosis in rats Influence of sex, strain, and surgical procedure”, Exp. Tox. Pathology 2006, 57, 195-205]. The model is characterized by progressive proteinuria, disturbed tubular electrolyte transport, a reduced glomerular filtration rate, an increase in urinary output, interstitial fibrosis with reactively occurring lymphocyte infiltrates, glomerulosclerosis and tubular atrophy. The level of proteinuria is a specific index of the renal function prognosis: the higher the proteinuria, the greater is the functional and structural kidney injury and therefore progression of chronic to terminal renal insufficiency (uraemia). During monitoring of therapy, e.g. with the ACE inhibitor enalapril, the course of proteinuria provides information on the functional and structural response to the therapy and thus on the renal function prognosis. As a result of the renal insufficiency and accumulation of umemic toxins, in the animals there is secondary development of a umemic cardiomyopathy, depending on the severity associated with hypertension, increased heart rate, reduced parasympathetic tone, myocardial, left-ventricular hypertrophy and fibrosis, diastolic dysfunction and an increased prevalence of arrhythmias [Svilerova et al. 2010 Physiol Res 59: S81-S88).
(§11) Procedure: male Wistar:WU rats (210-250 g) from Charles River had the left kidney and the renal cortex of the right kidney removed (=SNX) in one session; sham-operated rats served as control group (=SOP). The following groups, each with 12 rats per group, were investigated:
(§12) Group 2 SNX+placebo (60 g glycerol+100 g water+969 g PEG-400)
(§13) Group 3 SNX+10 mg/kg body weight/day enalapril (reference therapy, in the drinking water)
(§14) Group 4 SNX+0.1 mg/kg body weight/day partial A1 agonist EXAMPLE 1, p.o. in placebo
(§15) Group 5 SNX+1.0 mg/kg body weight/day partial A1 agonist EXAMPLE 1, p.o. in placebo
(§16) Group 6 SNX+0.3 mg/kg body weight/day partial A1 agonist EXAMPLE 4, p.o. in placebo
(§17) Group 7 SNX+3.0 mg/kg body weight/day partial A1 agonist EXAMPLE 4, p.o. in placebo
(§18) Three weeks after 5/6 nephrectomy, the rats developed manifest proteinuria, from this time point the rats were treated for a further four weeks corresponding to the groups stated above. At the end of the protocol, the following samples were obtained/measurements were carried out: eight-hour urine collection with determination of the concentration of hFABP in the urine by ELISA (Rat/Mouse h-FABP ELISA, Hycultbiotech), as marker for end organ damage, invasive measurement of the isoprenaline-induced increase (cumulatively 12.5 ng-250 ng/kg isoprenaline, i.v.) in systolic and diastolic left ventricular function, and TaqMan analyses of renal injury markers in the renal cortex.

[4] = test system: 5/6 nephrectomy rat model; experiment: Left-ventricular diastolic dysfunction under isoprenaline infusion in 5/6 nephrectomized rats; format: in vivo; conditions: Group 3: SNX + 10 mg/kg body weight/day in drinking water, 4 weeks
Source text: as §9, §10, §11, §12, §13, §14, §15, §16, §17, §18

## CCOC(=O)[C@H](CCc1ccccc1)N[C@@H](C)C(=O)N1CCC[C@H]1C(=O)O [enalapril, reference compound]
[1]
  P-creatinine: 62 ± 1.6 mmol/L
  P-urea: 9.3 ± 0.4 mmol/L
  U-creatinine: 1.5 ± 0.3 μmol/ml urine/kg BW/h
  U-protein: 0.43 ± 0.07 μmol/ml urine/kg BW/h
  U-sodium: 30 ± 5 μmol/ml urine/kg BW/h
  U-urea: 153 ± 27 μmol/ml urine/kg BW/h
  Urine volume: 2.4 ± 0.2 ml/kg BW/h
[1]; renal cortex
  CYR61 [gene expression]: 460 ± 55 rel. expression
  Lipocalin-2 [gene expression]: 140 ± 23 rel. expression
[2]
  Diastolic blood pressure: 91 ± 5 mmHg
  Heart rate: 353 ± 7 beats/min
  Left ventricular hypertrophy (LVS/RV ratio, mg/mg): 3.7 ± 0.2 mg/mg
  Left-ventricular end-diastolic pressure: 5.4 ± 0.6 mmHg
  Left-ventricular pressure: 130 ± 5 mmHg
  Pressure decrease over time: −10130 ± 239 mmHg/s
  Pressure increase over time: 8114 ± 304 mmHg/s
  Systolic blood pressure: 132 ± 4 mmHg
[3]
  P-urea: 15 ± 1 mmol/L
  U-creatinine: 1.6 ± 0.2 μmol/ml urine/kg BW/h
  U-protein: 0.25 ± 0.04 μmol/ml urine/kg BW/h
  U-sodium: 18 ± 3 μmol/ml urine/kg BW/h
  U-urea: 198 ± 22 μmol/ml urine/kg BW/h
  Urine volume: 2.8 ± 0.2 ml/kg BW/h
[3]; ELISA
  End organ injury marker concentration in the urine: hFABP: 377 ± 151 pg hFABP/ml urine/h
  End organ injury marker concentration in the urine: hFABP per creatinine: 83 ± 33 pg hFABP/μmol creatinine
[3]; renal cortex
  Kidney injury marker-1 [gene expression]: 27 ± 17 rel. expression
  Lipocalin-2 [gene expression]: 400 ± 236 rel. expression
  Osteopontin [gene expression]: 6226 ± 4107 rel. expression
[4]; isoprenaline 0 ng/kg body weight
  left-ventricular pressure decrease as a function of time: 6613 ± 226 mmHg/s
[4]; isoprenaline 12.5 ng/kg body weight
  left-ventricular pressure decrease as a function of time: 7972 ± 280 mmHg/s
[4]; isoprenaline 25 ng/kg body weight
  left-ventricular pressure decrease as a function of time: 8297 ± 285 mmHg/s
[4]; isoprenaline 50 ng/kg body weight
  left-ventricular pressure decrease as a function of time: 8705 ± 227 mmHg/s
[4]; isoprenaline 100 ng/kg body weight
  left-ventricular pressure decrease as a function of time: 9267 ± 177 mmHg/s
[4]; isoprenaline 250 ng/kg body weight
  left-ventricular pressure decrease as a function of time: 9359 ± 202 mmHg/s

Source: patent US20160311812A1, “ADENOSINE A1 AGONISTS AS MEDICAMENTS FOR KIDNEY DISORDERS” (BAYER PHARMA AKTIENGESELLSCHAFT, priority 2013, published 2016)
